What was measured:
Type in all cases: cell-based
U-937 = experiment: Cell viability CellTiter-Glo, U-937; settings: Homo sapiens; U-937, lymphoma
Protocol: (§1) Cell viability was measured by using the Promega CellTiter-Glo kit, the kit reflected cell viability by directly measuring intracellular ATP content. Different cancer cells were cultured in culture medium, and the 50% inhibitory concentration IC50 of the compound SJ2858 was measured by Promega CellTiter-Glo kit. The name source and culture condition of each tumor cell line were as follows:
Cell line U-937 (ATCC, No. CRL-1593.2) was cultured in RPMI1640 medium containing 10% fetal bovine serum (+P/S);

U-87 MG = experiment: Cell viability CellTiter-Glo, U-87 MG; settings: Homo sapiens, brain cancer
Protocol: as §1
Cell line U-87MG (ATCC, No. HTB-14) was cultured in EMEM medium containing 10% fetal bovine serum (+P/S);

G-402 = experiment: Cell viability CellTiter-Glo, G-402; settings: Homo sapiens; G-402, kidney cancer
Protocol: as §1
Cell line G-402 (ATCC, No. CRL-1440) was cultured in McCoy's 5a medium containing 10% fetal bovine serum (+P/S);

HCC15 = experiment: Cell viability CellTiter-Glo, HCC15; settings: HCC15, lung cancer
Protocol: as §1
Cell line HCC15 (KCLB, No. 70015) was cultured in RPMI1640 medium containing 10% fetal bovine serum (+P/S);

H9 = experiment: Cell viability CellTiter-Glo, H9; settings: Homo sapiens; H9, lymphoma
Protocol: as §1
Cell line H9 (ATCC, No. HTB-176) was cultured in RPMI1640 medium containing 10% fetal bovine serum (+P/S);

SNU-398 = experiment: Cell viability CellTiter-Glo, SNU-398; settings: Homo sapiens; SNU-398, liver cancer
Protocol: as §1
Cell line SNU-398 (ATCC, No. CRL-2233) was cultured in RPMI1640 medium (+P/S); containing 10% fetal bovine serum (+P/S);

786-O = experiment: Cell viability CellTiter-Glo, 786-O; settings: Homo sapiens, 786-0, kidney cancer
Protocol: as §1
Cell line 786-O (ATCC, No. CRL-1932) was cultured in RPMI1640 medium containing 10% fetal bovine serum (+P/S);

NCI-H1155 = experiment: Cell viability CellTiter-Glo, NCI-H1155; settings: Homo sapiens; NCI-H1155, lung cancer
Protocol: as §1
Cell line NCI-H1155 (ATCC, No. CRL-5818) was cultured in serum-free ACL-4 medium (+P/S);

D283 Med = experiment: Cell viability CellTiter-Glo, D283 Med; settings: Homo sapiens, brain cancer
Protocol: as §1
Cell line D283 Med (ATCC, No. HTB-185) was cultured in EMEM medium containing 10% fetal bovine serum (+P/S);

WSU-DLCL2 = experiment: Cell viability CellTiter-Glo, WSU-DLCL2; settings: Homo sapiens, WSUDLCL2; WSU-DLCL2, lymphoma
Protocol: as §1
Cell line WSU-DLCL2 (DSMZ, No. ACC-575) was cultured in RPMI1640 medium containing 10% fetal bovine serum (+P/S);

OCI-AML-5 = experiment: Cell viability CellTiter-Glo, OCI-AML-5; settings: Homo sapiens; OCI-AML-5, leukemia
Protocol: as §1
Cell line OCI-AML-5 (DSMZ, No. ACC-247) was cultured in alpha-MEM medium containing 20% fetal bovine serum and 20% volume fraction of 5637 cell line adjusted medium (+P/S);

NCI-H1048 = experiment: Cell viability CellTiter-Glo, NCI-H1048; settings: Homo sapiens; NCI-H1048, lung cancer
Protocol: as §1
Cell line NCI-H1048 (ATCC, No. CRL-5853) was cultured in HITES medium containing 5% fetal bovine serum (+P/S);

SF126 = experiment: Cell viability CellTiter-Glo, SF126; settings: Homo sapiens, SF-126; SF126, brain cancer
Protocol: as §1
Cell line SF126 (JCRB, No. IFO50286) was cultured in EMEM medium containing 10% fetal bovine serum (+P/S);

HH = experiment: Cell viability CellTiter-Glo, HH; settings: Homo sapiens, lymphoma
Protocol: as §1
Cell line HH (ATCC, No. CRL-2105) was cultured in RPMI1640 medium containing 10% fetal bovine serum (+P/S);

Gp2D = experiment: Cell viability CellTiter-Glo, Gp2D; settings: intestinal cancer
Protocol: as §1
Cell line Gp2D (ECACC, No. 95090714) was cultured in DMEM medium containing 10% fetal bovine serum (+P/S);

GAK = experiment: Cell viability CellTiter-Glo, GAK; settings: melanoma
Protocol: as §1
Cell line GAK (JCRB, No. JCRB0180) was cultured in Ham's F12 medium containing 20% fetal bovine serum (+P/S);

COLO 320HSR = experiment: Cell viability CellTiter-Glo, COLO 320HSR; settings: Homo sapiens, intestinal cancer
Protocol: as §1
Cell line COLO 320HSR (ATCC, No. CCL-220.1) was cultured in RPMI1640 medium containing 10% fetal bovine serum (+P/S);

CCRF-CEM = experiment: Cell viability CellTiter-Glo, CCRF-CEM; settings: Homo sapiens, leukemia
Protocol: as §1
Cell line CCRF-CEM (ATCC, No. CCL-119) was cultured in RPMI1640 medium containing 10% fetal bovine serum (+P/S);

OCI-AML-4 = experiment: Cell viability CellTiter-Glo, OCI-AML-4; settings: OCI-AML-4, leukemia
Protocol: as §1
Cell line OCI-AML-4 (DSMZ, No. ACC-729) was cultured in alpha-MEM medium containing 20% fetal bovine serum and 20% volume fraction of 5637 cell line adjusted medium (+P/S);

OCI-AML-3 = experiment: Cell viability CellTiter-Glo, OCI-AML-3; settings: Homo sapiens; OCI-AML-3, leukemia
Protocol: as §1
Cell line OCI-AML-3 (DSMZ, No. ACC-582) was cultured in RPMI1640 medium containing 20% fetal bovine serum (+P/S);

OCI-LY-19 = experiment: Cell viability CellTiter-Glo, OCI-LY-19; settings: Homo sapiens, OCI-LY19; OCI-LY-19, lymphoma
Protocol: as §1
Cell line OCI-LY-19 (DSMZ, code ACC-528) was cultured in 80-90% alpha-MEM medium containing 10-20% h.i. FBS (+P/S);

NCI-H82 cell = experiment: Cell viability, Promega CellTiter-Glo, NCI-H82 cell; settings: Homo sapiens, NCI-H82; read-out: IC50 of cell viability inhibition
Protocol: Cell viability was detected by using the Promega CellTiter-Glo kit, the kit reflected cell viability by directly measuring intracellular ATP content. […] Daoy cell and NCI-H82 cell were cultured in DMEM containing 10% FBS (plus p/s).

O=c1cc(-c2ccccc2)oc2cc(O)c(O)c(O)c12 [Compound SJ2858, baicalein]
IC50 (U-937): 39.2 µM | IC50 (U-87 MG): 19 µM | IC50 (G-402): 4.2 µM | IC50 (HCC15): 18.9 µM | IC50 (H9): 19 µM | IC50 (SNU-398): 13 µM | IC50 (786-O): 10.6 µM | IC50 (NCI-H1155): 19.6 µM | IC50 (D283 Med): 12.9 µM | IC50 (WSU-DLCL2): 21.3 µM | IC50 (OCI-AML-5): 45.1 µM | IC50 (NCI-H1048): 15 µM | IC50 (SF126): 14 µM | IC50 (HH): 34 µM | IC50 (Gp2D): 14.9 µM | IC50 (GAK): 23.1 µM | IC50 (COLO 320HSR): 17.8 µM | IC50 (CCRF-CEM): 14.7 µM | IC50 (OCI-AML-4): 24.6 µM | IC50 (OCI-AML-3): 62.3 µM | IC50 (OCI-LY-19): 52.3 µM | IC50 (NCI-H82 cell): 15.6 µM

From US20230098254A1, “SCUTELLARIAE RADIX COMPOUNDS AND USE THEREOF FOR INHIBITING OXIDATIVE PHOSPHORYLATION PATHWAY OF MITOCHONDRIA” (priority 2020, published 2023)
